In the test the test system is drug-resistant Pseudomonas aeruginosa GDMCC No: 61027 (strain C218). The test can be described thus: Checkerboard microdilution of norharmane combined with an antibiotic (OD600 growth, MIC at 80% inhibition, FICI and ΔE evaluation). It counts as cell-based. As for the experimental part: Preparation of bacterial solution: Pseudomonas aeruginosa GDMCC No: 61027 stored at −80° C., was thawed at room temperature, streaked on LB agar medium and cultured at 37° C. for 24 h, and then a single well-developed colony was inoculated again and cultured for 24 h at 37° C. to ensure that the strain was in the growth phase. A single colony was selected, inoculated into LB medium, and cultured at 37° C. and 200 rpm. for 16 h. The resulting solution was diluted 10000 times with fresh LB medium to obtain Pseudomonas aeruginosa GDMCC No:61027 bacterial solution whose concentration calculated by of the amount of bacterial viable count was […].
According to the checkerboard microdilution method, the norharmane mother liquor was diluted 4 times with methanol, and the concentration ranges of norharmane and an antibiotic (polymyxin B, imipenem-cilastatin sodium or levofloxacin) in combination were screened.
Methanol was used as a diluent, the preparation concentrations of norharmane were 160, 80, 40, 20, 10, 5 and 2.5 μg/mL, the preparation concentrations of polymyxin B were 31.25, 15.6, 7.8, 3.9, 1.95, 0.98 and 0.49 μg/mL; the preparation concentrations of imipenem-cilastatin sodium were 8000, 4000, 2000, 1000, 500, 250 and 125 μg/mL; the preparation concentrations of levofloxacin were 250, 125, 62.5, 31.25, 15.6, 7.8 and 3.9 μg/mL; and the preparation concentrations of ofloxacin were 2000, 1000, 500, 250, 125, 62.5, and 31.25 μg/mL.
According to FIG. 7, each antibiotic is added into a 96-well plate, and 50 μL of the antibiotic solutions were drawn and added into wells in columns 2˜8 of the %-well plate in the order of concentration from low to high, while the same amount of methanol instead of antibiotic was added into column 1. 50 μL of the norharmane solutions were drawn and added into wells in rows G˜A of the 96-well plate in the order of concentration from low to high, while no norharmane was added into wells in row H. After the 96-well plate was left to stand to evaporate methanol completely, 200 μL of the Pseudomonas aeruginosa GDMCC No: 61027 bacterial solution (2.6×10^9 CFU) were added into the wells in columns 1˜8. Therefore, the final concentrations of norharmane were 40, 20, 10, 5, 2.5, 1.25, 0.63 and 0 μg/mL; the final concentrations of norharmane were polymyxin B is 7.8, 3.9, 1.95, 0.98, 0.49, 0.24, 0.12 and 0 μg/mL; the final concentrations of imipenem-cilastatin sodium were 2000, 1000, 500, 250, 125, 62.5, 31.25 and 0 μg/mL; the final concentrations of levofloxacin were 62.5, 31.25, 15.6, 7.8, 3.9, 1.95, 0.98 and 0 μg/mL; and the final concentrations of ofloxacin were 500, 250, 125, 62.5, 31.25, 15.6, 7.8 and 0 μg/mL. 200 μL of fresh LB medium were added to column 9. Wherein, well H1 is a growth control well, containing only bacterial solution and no drugs, and column 9 is a blank control containing only LB liquid medium. The prepared 96-well plate was placed in a constant temperature incubator at 37° C. for 24 h, and then OD600 was measured with a microplate reader and the results were recorded. All experiments were repeated three times.
OD value of each well at 600 nm was measured with a microplate reader. And the percentage of the bacterial growth inhibition of each well was determined as
Loewe additivity (LA) theory assumes that the drugs applied in combination have no interaction, i.e., null reference model. FICI method is the non-parametric method of LA theory, which can be expressed as: ΣFIC=FICA+FICB=CA/MICA+CB/MICB
wherein MICA and MICB denote minimum inhibitory concentrations of two drugs A and B when used alone, respectively, and CA and CB denote concentration of drugs A and B in combination respectively while their combined effect is equal to the sum of their individual separate effects. ΣFIC value of each well with percentage of the bacterial growth inhibition >80% were calculated, and in the ΣFIC values obtained, if ΣFICmax>4, FICI=ΣFICmax; if ΣFICmax<4, FICI=ΣFICmin. […]
A general note: Broth dilution looks for growth in wells or tubes with falling amounts of substance.

Where [1] appears, read: end point 80% growth inhibition.

Turning to `C[C@H]1COc2c(N3CCN(C)CC3)c(F)cc3c(=O)c(C(=O)O)cn1c23` [Levofloxacin, levofloxacin, reference compound], the “MIC MICB: minimum inhibitory concentration of the antibiotic when used alone” value under setting [1] is 62.5 µg/mL. The Growth percentage (levofloxacin 0.98 μg/ml alone (norharmane 0)) was 91%; the Growth percentage (levofloxacin 1.95 μg/ml alone (norharmane 0)) is 89%; the Growth percentage (levofloxacin 3.9 μg/ml alone (norharmane 0)) was found to be 85%; the Growth percentage (levofloxacin 7.8 μg/ml alone (norharmane 0)) stood at 72%; the Growth percentage (levofloxacin 15.6 μg/ml alone (norharmane 0)) amounted to 42%; the Growth percentage (levofloxacin 31.25 μg/ml alone (norharmane 0)) is given as 26%. Besides, the Growth percentage (levofloxacin 62.5 μg/ml alone (norharmane 0)) amounted to 5%.

Take `c1ccc2c(c1)[nH]c1cnccc12` [Norharmane, norharmane]: the Growth percentage (norharmane 0.63 μg/ml alone, imipenem-cilastatin sodium 0 (Table 2)) amounted to 94%; the Growth percentage (norharmane 0.63 μg/ml alone, levofloxacin 0 (Table 3)) is 98%; the Growth percentage (norharmane 0.63 μg/ml alone, ofloxacin 0 (Table 4)) came out at 99%; the Growth percentage (norharmane 0.63 μg/ml alone, polymyxin B 0 (Table 1)) is 99%; the Growth percentage (norharmane 1.25 μg/ml alone, imipenem-cilastatin sodium 0 (Table 2)) came out at 92%; the Growth percentage (norharmane 1.25 μg/ml alone, levofloxacin 0 (Table 3)) was 94%. Moreover, the Growth percentage was 98% (norharmane 1.25 μg/ml alone, ofloxacin 0 (Table 4)); 96% (norharmane 1.25 μg/ml alone, polymyxin B 0 (Table 1)); 87% (norharmane 2.5 μg/ml alone, imipenem-cilastatin sodium 0 (Table 2)); 94% (norharmane 2.5 μg/ml alone, levofloxacin 0 (Table 3)); 97% (norharmane 2.5 μg/ml alone, ofloxacin 0 (Table 4)); 96% (norharmane 2.5 μg/ml alone, polymyxin B 0 (Table 1)). Further, the Growth percentage reads like this: (norharmane 5 μg/ml alone, imipenem-cilastatin sodium 0 (Table 2)) 87%; (norharmane 5 μg/ml alone, levofloxacin 0 (Table 3)) 92%; (norharmane 5 μg/ml alone, ofloxacin 0 (Table 4)) 95%; (norharmane 5 μg/ml alone, polymyxin B 0 (Table 1)) 95%; (norharmane 10 μg/ml alone, imipenem-cilastatin sodium 0 (Table 2)) 86%; (norharmane 10 μg/ml alone, levofloxacin 0 (Table 3)) 98%. In addition, the Growth percentage runs as follows: (norharmane 10 μg/ml alone, ofloxacin 0 (Table 4)) 94%; (norharmane 10 μg/ml alone, polymyxin B 0 (Table 1)) 95%; (norharmane 20 μg/ml alone, imipenem-cilastatin sodium 0 (Table 2)) 85%; (norharmane 20 μg/ml alone, levofloxacin 0 (Table 3)) 95%; (norharmane 20 μg/ml alone, ofloxacin 0 (Table 4)) 88%; (norharmane 20 μg/ml alone, polymyxin B 0 (Table 1)) 95%. Also, the Growth percentage by setting is: (norharmane 40 μg/ml alone, imipenem-cilastatin sodium 0 (Table 2)) 82%; (norharmane 40 μg/ml alone, levofloxacin 0 (Table 3)) 93%; (norharmane 40 μg/ml alone, ofloxacin 0 (Table 4)) 81%; (norharmane 40 μg/ml alone, polymyxin B 0 (Table 1)) 84%. Moreover, where the note is “norharmane used alone, end point 80% growth inhibition”, the “MIC MICA: minimum inhibitory concentration of a drug used alone” value turned out to be 40 µg/mL.

Turning to `CC1COc2c(N3CCN(C)CC3)c(F)cc3c(=O)c(C(=O)O)cn1c23` (centres unmarked) [Ofloxacin, ofloxacin, reference compound], the “MIC MICB: minimum inhibitory concentration of the antibiotic when used alone” value under setting [1] worked out at 500 µg/mL. The Growth percentage is, setting by setting: (ofloxacin 7.8 μg/ml alone (norharmane 0)) 83%; (ofloxacin 15.6 μg/ml alone (norharmane 0)) 79%; (ofloxacin 31.25 μg/ml alone (norharmane 0)) 73%; (ofloxacin 62.5 μg/ml alone (norharmane 0)) 67%; (ofloxacin 125 μg/ml alone (norharmane 0)) 54%; (ofloxacin 250 μg/ml alone (norharmane 0)) 36%. Besides, where the note is “ofloxacin 500 μg/ml alone (norharmane 0)”, the Growth percentage worked out at 6%.

For the molecule polymyxin B [reference compound], the “MIC MICB: minimum inhibitory concentration of the antibiotic when used alone” value under setting [1] was found to be 7.8 µg/mL. The Growth percentage turned out to be 100% (polymyxin B 0.12 μg/ml alone (norharmane 0)); 98% (polymyxin B 0.24 μg/ml alone (norharmane 0)); 98% (polymyxin B 0.49 μg/ml alone (norharmane 0)); 90% (polymyxin B 0.98 μg/ml alone (norharmane 0)); 52% (polymyxin B 1.95 μg/ml alone (norharmane 0)); 29% (polymyxin B 3.9 μg/ml alone (norharmane 0)). Besides, for the setting “polymyxin B 7.8 μg/ml alone (norharmane 0)”, the Growth percentage is given as 5%.

The values are drawn from patent US12453720B2, “Application of norharmane in improving antibacterial activity of antibiotics” (ZHEJIANG UNIVERSITY OF TECHNOLOGY, priority 2020, dated 2025).
